Measurements as given in PubChem BioAssay (NCI).
Several values for one entry are separate records, joined by “and”; a condition that tells them apart may be missing. Equal values may be shown once.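 Tested at 5 concentrations; 48 h exposure; 96-well plates; endpoints linearly interpolated, else capped at highest concentration. At the GI50, growth is halved. TGI: total growth inhibition.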

Legend:
Assay in all cases: NCI-60 cell line screen, 48 h
LXFL 529 NSCLC = tested on: LXFL 529 NSCLC
MALME-3M melanoma = tested on: MALME-3M melanoma
A498 renal = tested on: A498 renal
MOLT-4 leukemia = tested on: MOLT-4 leukemia
SF-268 CNS = tested on: SF-268 CNS
SF-539 CNS = tested on: SF-539 CNS
HOP-92 NSCLC = tested on: HOP-92 NSCLC
KM20L2 colon = tested on: KM20L2 colon
SK-MEL-5 melanoma = tested on: SK-MEL-5 melanoma

For `CCn1c2ccccc2c(=O)c2c(OC)ccc(OC)c21`, the TGI (LXFL 529 NSCLC) was > 100 µM, the TGI (MALME-3M melanoma) was > 100 µM and the TGI (A498 renal) was > 100 µM. The TGI (MOLT-4 leukemia) was > 100 µM, the TGI (SF-268 CNS) was > 100 µM and the TGI (SF-539 CNS) was > 100 µM. For the same compound, the TGI (HOP-92 NSCLC) was 98.7 µM and the TGI (KM20L2 colon) was > 100 µM.
`O=[N+]([O-])c1ccc(C(Cl)C(Cl)c2ccc(C(Cl)C(Cl)c3ccc([N+](=O)[O-])cc3[N+](=O)[O-])cc2)c([N+](=O)[O-])c1` (stereo unspecified) was tested, and the GI50 (LXFL 529 NSCLC) was 0.179 µM, the TGI (LXFL 529 NSCLC) was 1.9 µM and 0.377 µM and the GI50 (MALME-3M melanoma) was 0.243 µM. For the same compound, the TGI (MALME-3M melanoma) was 2.33 µM and 0.57 µM, the GI50 (A498 renal) was 1.05 µM and the TGI (A498 renal) was 11.1 µM and 2.96 µM. The TGI (MOLT-4 leukemia) was > 62 µM, the GI50 (SK-MEL-5 melanoma) was 0.172 µM and the TGI (SK-MEL-5 melanoma) was 1.86 µM and 0.335 µM. For the same compound, the GI50 (SF-268 CNS) was 0.253 µM, the GI50 (SF-539 CNS) was 0.466 µM and the TGI (SF-539 CNS) was 5.35 µM and 11.6 µM. The TGI (HOP-92 NSCLC) was 3.28 µM and the TGI (KM20L2 colon) was 2.28 µM.
For `Cc1ccc(/C=C(\NC(=O)c2ccccc2)c2nc3ccccc3[nH]2)cc1`, the TGI (LXFL 529 NSCLC) was > 100 µM, the TGI (MALME-3M melanoma) was > 100 µM and the TGI (A498 renal) was > 100 µM. For the same compound, the TGI (SK-MEL-5 melanoma) was 36.7 µM, the TGI (SF-268 CNS) was > 100 µM and the TGI (SF-539 CNS) was > 100 µM. For the same compound, the TGI (HOP-92 NSCLC) was 86.5 µM and the TGI (KM20L2 colon) was > 100 µM.
In the case of `CCC1C(C(=O)Nc2ccccc2C)=C(C)NC(C)=C1c1ccccc1C` (stereo unspecified), the TGI (LXFL 529 NSCLC) was > 100 µM, the TGI (MALME-3M melanoma) was > 100 µM and the TGI (A498 renal) was > 100 µM. The TGI (MOLT-4 leukemia) was > 100 µM, the TGI (SK-MEL-5 melanoma) was > 100 µM and the TGI (SF-268 CNS) was > 61.1 µM. For the same compound, the TGI (SF-539 CNS) was > 100 µM, the TGI (HOP-92 NSCLC) was > 100 µM and the TGI (KM20L2 colon) was > 100 µM.
For `C[C@@H](NS(=O)(=O)c1ccc(NC(=O)c2ccccc2)cc1)C(=O)O`, the TGI (LXFL 529 NSCLC) was > 100 µM, the TGI (MALME-3M melanoma) was > 100 µM and the TGI (A498 renal) was > 100 µM. For the same compound, the TGI (MOLT-4 leukemia) was > 100 µM, the TGI (SK-MEL-5 melanoma) was > 100 µM and the TGI (SF-268 CNS) was > 100 µM. The TGI (SF-539 CNS) was > 100 µM, the TGI (HOP-92 NSCLC) was > 100 µM and the TGI (KM20L2 colon) was > 100 µM.
For `COC(=O)c1ncc2c(=O)[nH]c3ccccc3c2c1C(=O)OC`, the TGI (LXFL 529 NSCLC) was > 100 µM, the TGI (MALME-3M melanoma) was > 100 µM and the TGI (A498 renal) was > 100 µM. The TGI (MOLT-4 leukemia) was > 100 µM, the TGI (SK-MEL-5 melanoma) was > 100 µM and the TGI (SF-268 CNS) was > 100 µM. For the same compound, the TGI (SF-539 CNS) was > 100 µM, the TGI (HOP-92 NSCLC) was > 100 µM and the TGI (KM20L2 colon) was > 100 µM.
Compound `CCN(CC)CC(C)C(=O)/C=C/c1ccc(C)cc1` (stereo unspecified) has a TGI (LXFL 529 NSCLC) of 3.23 µM, a TGI (MALME-3M melanoma) of 7.08 µM and a TGI (A498 renal) of 20.6 µM. It also gave a TGI (MOLT-4 leukemia) of 7.07 µM, a TGI (SK-MEL-5 melanoma) of 17 µM and a TGI (SF-268 CNS) of 4.51 µM. It also gave a TGI (SF-539 CNS) of 3.85 µM, a TGI (HOP-92 NSCLC) of 4.84 µM and a TGI (KM20L2 colon) of 21.6 µM.
Work on `NS(=O)(=O)c1ccc(NC(=O)Cc2nc3ccccc3s2)cc1` yielded a TGI (LXFL 529 NSCLC) of 30.7 µM, a TGI (MALME-3M melanoma) of 30.3 µM and a TGI (A498 renal) of 36.8 µM. For the same compound, the TGI (MOLT-4 leukemia) was 58.6 µM, the TGI (SK-MEL-5 melanoma) was 34.5 µM and the TGI (SF-268 CNS) was 30.7 µM. It also gave a TGI (SF-539 CNS) of 32.3 µM, a TGI (HOP-92 NSCLC) of 29.8 µM and a TGI (KM20L2 colon) of 33.9 µM.
For `CC(C)(C)c1cc(CCCCCCCC2(CCCCCCCc3cc(C(C)(C)C)cc(C(C)(C)C)c3)OC(COCCOCCCCCC#N)C(COCCOCCCCCC#N)O2)cc(C(C)(C)C)c1` (stereo unspecified), the TGI (LXFL 529 NSCLC) was > 100 µM, the TGI (MALME-3M melanoma) was > 100 µM and the TGI (A498 renal) was > 100 µM. For the same compound, the TGI (SK-MEL-5 melanoma) was > 100 µM, the TGI (SF-268 CNS) was > 100 µM and the TGI (HOP-92 NSCLC) was > 100 µM. For the same compound, the TGI (KM20L2 colon) was > 100 µM.
For `NC1CCCCC1N.O=C1C=C/C(=C(/c2ccc(O)c(Br)c2)c2ccccc2S(=O)(=O)[O-])C=C1Br.O=C1C=C/C(=C(/c2ccc(O)c(Br)c2)c2ccccc2S(=O)(=O)[O-])C=C1Br.[Pt+4]`, the GI50 (LXFL 529 NSCLC) was 4.43 µM, the TGI (LXFL 529 NSCLC) was > 100 µM and the GI50 (MALME-3M melanoma) was 0.664 µM. The TGI (MALME-3M melanoma) was 21.3 µM, the GI50 (A498 renal) was 22.1 µM and the TGI (A498 renal) was > 100 µM. For the same compound, the GI50 (SK-MEL-5 melanoma) was 3.29 µM, the TGI (SK-MEL-5 melanoma) was 21.4 µM and the GI50 (SF-268 CNS) was 0.885 µM. The TGI (SF-268 CNS) was > 100 µM, the GI50 (SF-539 CNS) was 2.62 µM and the TGI (SF-539 CNS) was 50.8 µM. The GI50 (HOP-92 NSCLC) was > 100 µM, the TGI (HOP-92 NSCLC) was > 100 µM and the GI50 (KM20L2 colon) was 0.755 µM. For the same compound, the TGI (KM20L2 colon) was > 100 µM.
For `Cc1ccc(S(=O)(=O)N2CCN(C=S)CC2)cc1`, the TGI (LXFL 529 NSCLC) was > 100 µM, the TGI (MALME-3M melanoma) was > 100 µM and the TGI (A498 renal) was > 100 µM. For the same compound, the TGI (MOLT-4 leukemia) was > 100 µM, the TGI (SK-MEL-5 melanoma) was > 100 µM and the TGI (SF-268 CNS) was > 100 µM. The TGI (SF-539 CNS) was > 100 µM and the TGI (KM20L2 colon) was > 100 µM.
